Measured values: PubChem BioAssay (NCI)
Where “and” joins values, the source holds several entries; their conditions need not be identical. Identical values can stand only once.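 These data come from cells grown in 96-well plates and exposed to compound for 48 hours at five concentrations. The concentration for full growth arrest is given as TGI.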

Key:
Experiment in all cases: NCI tumour cell line growth inhibition, 48 h
[1] = test system: HOP-18 NSCLC
[2] = test system: SF-268 CNS
[3] = test system: UACC-62 melanoma
[4] = test system: RPMI-8226 leukemia
[5] = test system: UO-31 renal
[6] = test system: NCI-H226 lung
[7] = test system: HCC-2998 colon
[8] = test system: A498 renal
[9] = test system: HL-60(TB) leukemia
[10] = test system: KM12 colon
[11] = test system: LOX IMVI melanoma
[12] = test system: SNB-19 CNS
[13] = test system: OVCAR-4 ovarian
[14] = test system: SW-620 colon
[15] = test system: NCI-H522 lung
[16] = test system: IGROV1 ovarian
[17] = test system: EKVX NSCLC
[18] = test system: SK-MEL-5 melanoma
[19] = test system: SK-MEL-2 melanoma
[20] = test system: NCI-H23 lung
[21] = test system: 786-0 renal
[22] = test system: TK-10 renal
[23] = test system: OVCAR-8 ovarian
[24] = test system: OVCAR-3 ovarian
[25] = test system: SNB-78 CNS
[26] = test system: M19-MEL melanoma
[27] = test system: HOP-62 NSCLC
[28] = test system: SK-OV-3 ovarian
[29] = test system: SN12C renal
[30] = test system: HCT-15 colon
[31] = test system: MOLT-4 leukemia
[32] = test system: SF-295 CNS
[33] = test system: COLO 205 colon
[34] = test system: DMS 114 small cell lung
[35] = test system: HOP-92 NSCLC
[36] = test system: LXFL 529 NSCLC
[37] = test system: ACHN renal
[38] = test system: SNB-75 CNS
[39] = test system: HCT-116 colon
[40] = test system: DLD-1 colon
[41] = test system: SF-539 CNS
[42] = test system: HT29 colon
[43] = test system: M14 melanoma
[44] = test system: CAKI-1 renal
[45] = test system: OVCAR-5 ovarian
[46] = test system: U251 CNS
[47] = test system: NCI-H460 lung
[48] = test system: XF 498 CNS
[49] = test system: DMS 273 small cell lung
[50] = test system: SK-MEL-28 melanoma
[51] = test system: CCRF-CEM leukemia
[52] = test system: UACC-257 melanoma
[53] = test system: RXF 393 renal
[54] = test system: K-562 leukemia
[55] = test system: MALME-3M melanoma
[56] = test system: KM20L2 colon
[57] = test system: A549 NSCLC
[58] = test system: RXF-631 renal
[59] = test system: BT-549 breast
[60] = test system: SN12K1 renal
[61] = test system: HS 578T breast
[62] = test system: MCF7 breast
[63] = test system: PC-3 prostate
[64] = test system: DU-145 prostate
[65] = test system: MDA-N
[66] = test system: MDA-MB-435
[67] = test system: T-47D breast
[68] = test system: MDA-MB-231 breast
[69] = test system: NCI/ADR-RES ovarian
[70] = test system: P388 leukemia
[71] = test system: SR leukemia

CCCCCCCCCCCCCC(=O)CC(=O)c1c(O)cccc1O
TGI [1]: > 100 µM | TGI [2]: > 100 µM | TGI [3]: > 100 µM | TGI [4]: 72.4 µM | TGI [5]: > 100 µM | TGI [6]: 80.3 µM | TGI [7]: > 100 µM | TGI [8]: > 100 µM | TGI [9]: 41.7 µM | TGI [10]: > 100 µM | TGI [11]: 36.3 µM | TGI [12]: 99.2 µM | TGI [13]: > 100 µM | TGI [14]: 50.2 µM | TGI [15]: 59.1 µM | TGI [16]: > 100 µM | TGI [17]: 68.8 µM | TGI [18]: > 100 µM | TGI [19]: 41.4 µM | TGI [20]: 84.2 µM | TGI [21]: > 100 µM | TGI [22]: > 100 µM | TGI [23]: > 100 µM | TGI [24]: 37.3 µM | TGI [25]: 75.5 µM | TGI [26]: > 100 µM | TGI [27]: > 100 µM | TGI [28]: > 100 µM | TGI [29]: > 100 µM | TGI [30]: 58.8 µM | TGI [31]: 52.7 µM | TGI [32]: > 100 µM | TGI [33]: 55.1 µM | TGI [34]: 47.1 µM | TGI [35]: 89.7 µM | TGI [36]: > 100 µM | TGI [37]: 74.5 µM | TGI [38]: > 100 µM | TGI [39]: > 100 µM | TGI [40]: > 100 µM | TGI [41]: > 100 µM | TGI [42]: > 100 µM | TGI [43]: > 100 µM | TGI [44]: 76.1 µM | TGI [45]: > 100 µM | TGI [46]: > 100 µM | TGI [47]: 91.9 µM | TGI [48]: 51.2 µM | TGI [49]: 41.1 µM | TGI [50]: > 100 µM | TGI [51]: 41.6 µM | TGI [52]: 85.3 µM | TGI [53]: > 100 µM | TGI [54]: 48.2 µM | TGI [55]: 92 µM | TGI [56]: > 100 µM | TGI [57]: > 100 µM

C[S+](C)CCOC(=O)C(=[N+]=[N-])c1ccc([N+](=O)[O-])cc1
TGI [1]: > 100 µM | TGI [58]: > 100 µM | TGI [2]: > 100 µM | TGI [3]: > 100 µM | TGI [4]: > 100 µM | TGI [5]: > 100 µM | TGI [6]: > 100 µM | TGI [7]: > 100 µM | TGI [8]: > 100 µM | TGI [9]: > 100 µM | TGI [10]: > 100 µM | TGI [12]: > 100 µM | TGI [13]: > 100 µM | TGI [14]: > 100 µM | TGI [15]: > 100 µM | TGI [16]: > 100 µM | TGI [17]: > 100 µM | TGI [18]: > 100 µM | TGI [19]: > 100 µM | TGI [20]: > 100 µM | TGI [21]: > 100 µM | TGI [22]: > 100 µM | TGI [23]: > 100 µM | TGI [24]: > 100 µM | TGI [25]: > 100 µM | TGI [26]: > 100 µM | TGI [27]: > 100 µM | TGI [28]: > 100 µM | TGI [29]: > 100 µM | TGI [30]: > 100 µM | TGI [31]: > 100 µM | TGI [32]: > 100 µM | TGI [33]: > 100 µM | TGI [34]: > 100 µM | TGI [36]: > 100 µM | TGI [37]: > 100 µM | TGI [38]: > 100 µM | TGI [39]: > 100 µM | TGI [41]: > 100 µM | TGI [42]: > 100 µM | TGI [43]: > 100 µM | TGI [44]: > 100 µM | TGI [45]: > 100 µM | TGI [46]: > 100 µM | TGI [47]: > 100 µM | TGI [48]: > 100 µM | TGI [49]: > 100 µM | TGI [51]: > 100 µM | TGI [52]: > 100 µM | TGI [53]: > 100 µM | TGI [54]: > 100 µM | TGI [55]: > 100 µM | TGI [56]: > 100 µM | TGI [57]: > 100 µM

Nc1ncnc2c1nc(Cl)n2C1OC2COP(=O)(O)OC2C1O (stereo not drawn)
TGI [1]: > 300 µM | TGI [2]: > 300 µM | TGI [3]: > 300 µM | TGI [4]: > 300 µM | TGI [5]: > 300 µM | TGI [6]: > 155 µM | TGI [7]: > 300 µM | TGI [8]: > 300 µM | TGI [9]: > 209 µM | TGI [10]: > 300 µM | TGI [11]: > 300 µM | TGI [59]: > 300 µM | TGI [12]: > 300 µM | TGI [13]: 204 µM and > 100 µM | TGI [14]: > 300 µM | TGI [15]: > 300 µM | TGI [60]: > 300 µM | TGI [16]: > 300 µM | TGI [17]: > 300 µM | TGI [18]: > 300 µM | TGI [19]: > 300 µM | TGI [20]: > 300 µM | TGI [21]: > 300 µM | TGI [22]: > 222 µM | TGI [23]: > 300 µM | TGI [24]: > 300 µM | TGI [61]: > 280 µM | TGI [25]: > 300 µM | TGI [26]: > 300 µM | TGI [27]: 163 µM and > 100 µM | TGI [28]: > 300 µM | TGI [29]: > 300 µM | TGI [30]: > 300 µM | TGI [62]: > 300 µM | TGI [63]: > 162 µM | TGI [32]: > 300 µM | TGI [33]: > 300 µM | TGI [34]: > 300 µM | TGI [35]: 229 µM and > 92.9 µM | TGI [37]: > 300 µM | TGI [38]: > 213 µM | TGI [39]: > 300 µM | TGI [40]: > 194 µM | TGI [64]: > 300 µM | TGI [41]: > 300 µM | TGI [42]: > 300 µM | TGI [43]: > 300 µM | TGI [44]: 153 µM and > 100 µM | TGI [45]: > 283 µM | TGI [46]: > 300 µM | TGI [47]: > 300 µM | TGI [65]: > 300 µM | TGI [66]: > 255 µM | TGI [49]: > 222 µM | TGI [50]: > 300 µM | TGI [67]: > 300 µM | TGI [68]: > 300 µM | TGI [51]: > 300 µM | TGI [69]: > 300 µM | TGI [52]: > 300 µM | TGI [53]: > 300 µM | TGI [54]: > 300 µM | TGI [55]: > 300 µM | TGI [70]: > 300 µM | TGI [56]: > 300 µM | TGI [71]: > 300 µM | TGI [57]: > 300 µM
